| SMILES | melting point [°C] |
| --- | --- |
| Cc1ccc(NC(N)=S)c(-c2ccccc2)c1 | 175 to 177 |
| CCN(CC)C(=O)CCCCCN1CCC(NC(=O)c2cnc3c(OC)cccc3c2Nc2ccc(C(=O)NC3CCN(Cc4ccccc4)CC3)cc2)CC1 | 115 to 120 |
| COc1ccc2c(c1)c(CCNC(C)=O)cn2S(=O)(=O)c1ccc(C)cc1 | 132 to 133 |
| O=C(O)COc1cccc(CCc2nc(-c3ccccc3)c(-c3ccccc3)o2)c1 | 153 to 154 |
| CCCCOC(=O)NC1CCN(c2c(F)cc3c(=O)c(C(=O)O)cn(C4CC4)c3c2F)C1 (stereo not drawn) | 228 to 230 |
| COc1ccc(CN(C)CCOc2ccc(NC(=O)c3cccc4c(=O)c5cc(SC)ccc5[nH]c34)cc2)cc1OC | 160 |
| Cc1c(Cl)nc2sc(S(=O)(=O)Cc3ccccc3)nn2c1=O | 211 to 213 |
| COc1ccc(C(=O)N(c2ccccc2)c2ccc(OCCCN(C)C)cc2)c(OC)c1 | 78.5 to 82.5 |
| COc1cccc(CC[C@H]2CN(Cc3ccccc3)CCN2Cc2ccccc2)c1 | 73 to 75 |
| CN1CC(CCN(C)c2ccccc2)N(C)c2nc3ccccc3n2C1=O (stereo not drawn) | 74 to 90 |
| CC(C)(C)OC(=O)N1CCN(c2ccc(Oc3cc(Cl)ccc3[N+](=O)[O-])cc2)CC1 | 124 to 125 |
| CN(C)c1cc(N2C(=O)C3=C(CCCC3)C2=O)ccc1Cl | 124 to 127 |
| CC(C)(C)OCCCC1c2ccccc2COc2cccc(O)c21 (stereo not drawn) | 113 to 115 |
| Cc1ccc(S(=O)(=O)N2[C@H](CCCc3nc(C)no3)CC[C@@H]2c2ccc(F)cc2)cc1 (racemic) | 91 |
| N[C@@H](Cc1ccc(OCc2ccccc2)cc1)C(=O)NCCN1CCCCC1 | 58 to 61 |
| COc1ccc2c(c1)Sc1c(cc(OC)c(O)c1Br)N2C | 154 to 155 |
| CCCOc1ccc(-c2ccc3c(c2)C=C(C(=O)Nc2ccc(CN(C)C4CCOCC4)cc2)CCN3C)cc1 | 149 to 151 |
| CNc1nnc(C(C)(CCl)CCl)s1 | 105 to 107 |
| COc1cccc(/C=C/c2ccc(C(=O)O)cc2)c1 | 200 to 205 |
| CCc1nc2c(N)nc3cc(OCc4ccc(C(=O)OC)o4)ccc3c2s1 | 184 to 186 |
| COC(=O)c1cc2[nH]nc(N)c2s1 | 218 to 220 |
| COc1ccc(OC)c(NC(=O)C2OC(=O)c3ccccc3C2c2ccc(F)cc2)c1 (stereo not drawn) | 133 to 136 |
| CCOP(=O)(O)COCCn1cnc2c(=O)[nH]c(N)nc21 | 192 to 194 |
| Clc1cc(CBr)ccc1-c1ccccc1C1=NNN(C(c2ccccc2)(c2ccccc2)c2ccccc2)N1 | 15 to 60 |
| Fc1ccc(Cn2c(NC3CCN(CCOc4nc5ccccc5s4)CC3)nc3ccccc32)cc1 | 147 |

| SMILES | melting point [°C] |
| --- | --- |
| CC(C)[C@H](NC(=O)OC(C)(C)C)C(=O)NC1CCC(Nc2cccc3c2C(=O)c2ccccc2C3=O)CC1 (stereo partly drawn) | 179 |
| COc1ccc(C=C2NC(=O)N(C)C2=O)cc1 | 221 to 222 |
| COc1ccc(C(=O)[C@H]2CC=CC[C@H]2C(=O)O)cc1F (relative stereo) | 185 to 187 |
| CN(C)CCCOc1ccc(C(=O)NN)cc1 | 79.5 to 81 |
| CC(C)C(=O)NCC(=O)c1ccco1 | 78 to 80 |
| Cc1cc(C(C)(O)c2ccc(C(F)(F)F)cn2)ccc1NC(=O)OC(C)(C)C (stereo not drawn) | 132 to 134 |
| CCCC(NOCC)=C1C(=O)CC(C2=C(C)CCCC2(C)C)C(C(=O)OC)C1=O (stereo not drawn) | 70 |
| O=C1CNCC2c3ccccc3CCN12 (stereo not drawn) | 119 to 120 |
| Cc1ccnc(NCCCCC(=O)O)c1 | 138 to 140 |
| Nc1cc2c(cc1[N+](=O)[O-])CCO2 | 140 to 142 |
| CCOC(=O)c1c(C)nc2c3cccc(Cl)c3ccn12 | 140 to 141 |
| C[C@@H](SN1CCOCC1)[C@](O)(Cn1cncn1)c1ccc(F)cc1F | 119 to 121 |
| CC(=O)Nc1cc2c(cc1[N+](=O)[O-])OC(C)O2 (stereo not drawn) | 112 to 113 |
| CC(C)(C)c1ccc(Cn2ccc3cc(-c4ccc(C(C)(C)C)cc4)ccc32)cc1 | 167 to 168 |
| CS(=O)c1ccc(-n2cnc3ccc(-c4nnc(S)o4)cc32)cc1 (stereo not drawn) | 299 to 300 |
| Cc1nc(N2CCOCC2)c2c(n1)N(CC(O)CO)C(=O)CO2 (stereo not drawn) | 153 to 155 |
| c1csc(C2=NCC3COCCN3c3cc4c(cc32)OCCO4)c1 (stereo not drawn) | 192 to 194 |
| Cn1cc(-c2cc(-c3cnc4[nH]ccc4c3)ccn2)n(-c2ccc(C(C)(C)C#N)cc2)c1=O | 248 |
| O=C(O)c1ccc(CCCCc2ccccc2Oc2ccccc2)cc1 | 120 |
| CCCc1cc2cc(O)c(F)cc2c(Oc2ccc(/C=C/C(=O)O)cc2)c1-c1ccccc1 | 118 to 120 |
| COc1ccc(-c2nc(NC(=O)c3ccccc3)sc2-c2ccnc(NC(=O)c3ccccc3)c2)cc1 | 230 to 233 |
| CCCCC[C@H]1CC[C@H](CCC2CCC(c3ccc(Oc4ccc(N)cc4)cc3)(c3ccc(Oc4ccc(N)cc4)cc3)CC2)CC1 | 171 to 172 |
| Fc1ccc(-c2nc3ccccn3c2-c2ccnc(-c3ccc(CN4CCOCC4)cc3)c2)cc1Cl | 189 |
| Nc1ccc(C2Sc3ccccc3C=C2c2ccc3c(c2)NC(=O)CO3)cc1 (stereo not drawn) | 186 to 189 |
| CCCCCCc1cn(CC2OC(n3cnc4c(NCc5ccc(OC)cc5)ncnc43)C(O)C2O)nn1 (stereo not drawn) | 101 to 102 |

The remaining lines, values ahead:

| melting point [°C] | SMILES |
| --- | --- |
| 236 to 238 | COc1cc2nc(C)[nH]c(=O)c2cc1OCCCN1CCOCC1 |
| 61 to 62 | CCCCCCCCCCOc1cc(OCCCCCCCCCC)cc(N(CC(=O)O)CC(=O)OC)c1 |
| 97 to 99 | O[C@@H](COc1cccc(-c2noc3ccsc23)c1)CN1CCN(c2n[nH]c3cc(F)ccc23)CC1 |
| 60 to 62 | COc1nscc1C#N |
| 139 to 140 | CCCOc1ccc(S(=O)(=O)N2CCN(CCOC(C)=O)CC2)cc1-c1nc2c(CCC)cn(CC)c2c(=O)[nH]1 |
| 168 to 170 | CCOC(=O)NC1CCCCn2c1nc(-c1ccncn1)cc2=O (stereo not drawn) |
| 172 | CNc1cccc2c1C(=O)c1ccccc1C2=O |
| 179 to 181 | CNCc1cccc(CN(C)c2nc(=O)c3c(C)c(OC)c(OC)cc3[nH]2)c1 |
| 123 | Cc1cc(-c2cc(C(F)F)nn2-c2ccc(S(C)(=O)=O)c(F)c2)ccc1-c1cscn1 |
| 118 to 120 | COc1cc2c(CC(=O)O)c(C)n(C(=O)c3ccccc3)c2cc1F |
| 242 to 244 | CC(C)n1nc(-c2c(-c3ccccc3)nc(N)nc2-n2cnc3ccccc32)ccc1=O |
| 135 to 138 | COc1cccc(C2(C(N)=O)CCC3(CC2)OCCO3)c1 |
| 193 to 195 | CCc1c(CC(=O)O)c(C)nc(C)c1Cc1nc2c(F)c(F)cc(F)c2s1 |
| 135 to 136 | NC(CNCC(N)=NO)=NO |
| 101 | COC(=O)c1ccc(Oc2cccnc2)c(N)c1 |
| 153 to 154 | Cc1cc(-n2ccc(OCc3ccccc3)cc2=O)sc1C(=O)NCc1ccccc1 |
| 192 | CC(C)(C)CC1NC(C(=O)NCC2CCC(O)CC2)C(c2cccc(Cl)c2F)C12C(=O)Nc1cc(Cl)ccc12 (stereo not drawn) |
| 110 to 112 | O=C(CCN1CCN(c2cccc(Cl)c2)CC1)N1CC2CC3CC(C2)CC1C3 |
| 124 | CC(C)(C)c1cc(C(=O)OCCc2ccc([N+](=O)[O-])cc2)cc(C(C)(C)C)c1O |
| 168 to 170 | O=C(O)c1cc(F)cc(-c2cccc3cc(Cc4cc(F)cc(Cl)c4)sc23)c1 |
| 240 | CCOC(=O)CCc1cc(S(C)(=O)=O)cc(-c2nc(=O)c3ccc(Cl)cc3s2)n1 |
| 56 to 58 | O=C(CC1CCCCC1=O)c1ccc(Cl)cc1 (stereo not drawn) |
| 145 | CCCCc1cn2ccccc2c1S(=O)(=O)c1ccc(OS(=O)(=O)c2ccc(C)cc2)cc1 |
| 114 to 117 | Fc1ccc(Nc2nc(Cl)nc(Cl)n2)cc1C(F)(F)F |

| melting point [°C] | SMILES |
| --- | --- |
| 89 to 90 | CC(C(N)=O)c1ccc2c(c1)Oc1ncccc1CC2=O (stereo not drawn) |
| 94 to 95 | CCn1nnnc1Cc1ccc(N)cc1 |
| 108 to 109 | CC(C)n1c(=O)n(C)c2cc(-c3ncc(C(F)(F)F)cc3Cl)ccc21 |
| 112 to 114 | Cc1cn(C(C)C(=O)N(C)C)nc1-c1ccc(Cl)s1 (stereo not drawn) |
| 131 to 133 | COc1ccc(NC(=O)[C@H]2[C@H](c3ccccc3)C23CCCC3)c(OC)n1 (relative stereo) |
| 166 to 167 | Cc1ccc2c(c1)C(C(=O)Nc1c(C(C)C)cccc1C(C)C)c1ccccc1CO2 (stereo not drawn) |
| 132 to 134 | CN1C(=O)[C@@H](NC(=O)OC(C)(C)C)CCc2ccccc21 |
| 74 to 75 | Cn1cccc1C(=O)NCCCSc1ccncc1 |
| 151 to 154 | CN(C)CCNC(=O)c1ccc(OCc2ccc(-c3ccccc3)cc2)nc1 |
| 189 to 190 | OCc1cc2ccccc2nc1I |
| 228 to 229 | CC(C)Nn1c(CO)nc2c(N)nc3ccccc3c21 |
| 114 to 115 | CC(C)(C)c1ccc([Si](C)(C)COc2cc(C(C)(C)C)c(O)c(C(C)(C)C)c2)cc1 |
| 117 to 118 | CON(C(=O)c1cn(C)nc1C(F)F)C(CF)Cc1c(Cl)cc(Cl)cc1Cl (stereo not drawn) |
| 131 to 132 | CCC(Cc1cccc(NC(C)=O)c1)C(=O)O (stereo not drawn) |
| 173 to 175 | Cc1cccc(C(=O)c2ccc(OCC(=O)O)c(Cl)c2Cl)c1 |
| 185 to 200 | CN(C)c1ccc(N2C(=O)C3Cc4[nH]cnc4CN3C2=S)cc1 (stereo not drawn) |
| 102 to 104 | COC(=O)c1cccc2c1ccn2S(C)(=O)=O |
| 194 to 198 | O=C(O)C1CCc2c(oc3ccc(Cl)cc23)C1 (stereo not drawn) |
| 107 to 108 | COC(=O)c1ccc(S(C)(=O)=O)c(C)c1Cl |
| 193 to 195 | C(=C\c1cc(/C=C/c2ccc3cc[nH]c3c2)n[nH]1)/c1cccc(OCc2ccccn2)c1 |
| 211 to 213 | CCc1nc(/C=C/c2cn(-c3ccccc3)nc2OCc2ccc(OCc3nc(-c4cccc(C(=O)NS(C)(=O)=O)c4)oc3C)c(OC)c2)cs1 |
| 190 to 192 | CCCc1nc2c(N)nc3ccc(N)cc3c2s1 |
| 76 to 77 | C=CCNC(=O)C1CCc2ccccc2O1 (stereo not drawn) |
| 239 to 241 | c1ccc(-c2ncc(-c3ccc4cc(OCc5nnn[nH]5)ccc4c3)o2)cc1 |
